The values below come from patent publication US11596639B2, “Substituted indole Mcl-1 inhibitors” (Vanderbilt University, priority 2016, dated 2023).

Where two headings read alike, the source gives them in different places.

The subject of test [1] is H929 human cancer cell lines. In words: Cellular viability / proliferation (Cell TiterGlo, 72 h). It counts as cell-based. A digest of the protocol: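 Compounds were added as 2-fold serial dilutions from 50 μM (final DMSO <1%) to H929 cells seeded 1,000 per well in 10% FBS medium one day earlier.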
(In general: ATP-based viability assays read luminescence as a measure of living cells.)

Test [2] concerns the target Mcl-1 (Homo sapiens (Human), UniProt Q07820). In words: Fluorescence polarization anisotropy (FPA) competition assay, FITC-Bak or FITC-Bim BH3 peptide. It counts as binding. The following applies: read-out: Ki for Inhibition of Mcl-1 by FPA assay. On the technique in general: Fluorescence polarisation rises when a labelled molecule tumbles more slowly, as on binding a larger partner.

The mark [3] stands for this setting: Homo sapiens, NCI-H929, 72 h, read-out: GI50 on cellular proliferation of H929 human cancer cell lines, H929 cells, 72 h, Cell TiterGlo, 10% FBS.

Sequence of Mcl-1 (Q07820 172-327): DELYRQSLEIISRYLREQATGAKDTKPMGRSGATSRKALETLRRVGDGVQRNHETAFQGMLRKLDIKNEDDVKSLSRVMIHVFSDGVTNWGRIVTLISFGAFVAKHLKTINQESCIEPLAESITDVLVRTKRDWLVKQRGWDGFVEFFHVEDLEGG

For orientation: Ki means a dissociation constant, usually derived from enzyme kinetics or from competition with a known ligand. In the case of `Cc1cc(OCCCc2c3n(c4c(-c5c(C)ncnc5C)c(Cl)ccc24)CCCN(c2cc(C(=O)O)cc4c2OCCO4)C3=O)cc(C)c1Cl` [Example 154, 5-[8-Chloro-11-[3-(4-chloro-3,5-dimethyl-phenoxy)propyl]-7-(4,6-dimethylpyrimidin-5-yl)-1-oxo-4,5-dihydro-3H-[1,4]diazepino[1,2-a]indol-2-yl]-2,3-dihydro-1,4-benzodioxine-7-carboxylic acid], the GI50 in test [1] (setting [3]) stood at 1300 nM. In addition, the Ki in test [2] was under 1 nM.
For `Cc1cc(OCCCc2c3n(c4c(-c5c(C)ncnc5C)c(Cl)ccc24)CCCN(c2cc(C(=O)O)c4cnn(C)c4c2)C3=O)cc(C)c1Cl` [Example 155, 6-[8-Chloro-11-[3-(4-chloro-3,5-dimethyl-phenoxy)propyl]-7-(4,6-dimethylpyrimidin-5-yl)-1-oxo-4,5-dihydro-3H-[1,4]diazepino[1,2-a]indol-2-yl]-1-methyl-indazole-4-carboxylic acid], in that order: 1400 nM and under 1 nM.
Turning to `Cc1cc(OCCCc2c3n(c4c(-c5c(C)ncnc5C)c(Cl)ccc24)CCCN(c2cn(C)c4ccc(C(=O)O)cc24)C3=O)cc(C)c1Cl` [Example 156, 3-[8-Chloro-11-[3-(4-chloro-3,5-dimethyl-phenoxy)propyl]-7-(4,6-dimethylpyrimidin-5-yl)-1-oxo-4,5-dihydro-3H-[1,4]diazepino[1,2-a]indol-2-yl]-1-methyl-indole-5-carboxylic acid], the GI50 in test [1] (setting [3]) worked out at 260 nM. Moreover, the inhibitory constant (Ki) in test [2] is under 1 nM.
The corresponding values for `Cc1cc(OCCCc2c3n(c4c(-c5c(C)nn(C)c5C)c(Cl)ccc24)[C@H](C)CN(c2ccc4c(C(=O)O)cccc4n2)C3=O)cc(C)c1Cl` [Example 157, (R)-2-(7-Chloro-10-(3-(4-chloro-3,5-dimethylphenoxy)propyl)-4-methyl-1-oxo-6-(1,3,5-trimethyl-1H-pyrazol-4-yl)-3,4-dihydropyrazino[1,2-a]indol-2(1H)-yl)quinoline-5-carboxylic acid] are 6400 nM and 2.5 nM.
The corresponding values for `CCCn1cc(N2C[C@@H](C)n3c(c(CCCOc4cc(C)c(Cl)c(C)c4)c4ccc(Cl)c(-c5c(C)nn(C)c5C)c43)C2=O)c2cc(C(=O)O)ccc21` [Example 158, (R)-3-(7-Chloro-10-(3-(4-chloro-3,5-dimethylphenoxy)propyl)-4-methyl-1-oxo-6-(1,3,5-trimethyl-1H-pyrazol-4-yl)-3,4-dihydropyrazino[1,2-a]indol-2(1H)-yl)-1-propyl-1H-indole-5-carboxylic acid] are 480 nM and under 1 nM.
The corresponding values for `Cc1cc(N2C[C@@H](C)n3c(c(CCCOc4cc(C)c(Cl)c(C)c4)c4ccc(Cl)c(-c5c(C)nn(C)c5C)c43)C2=O)c2c(c1)c(C(=O)O)cn2C` [Example 159, (R)-7-(7-chloro-10-(3-(4-chloro-3,5-dimethylphenoxy)propyl)-4-methyl-1-oxo-6-(1,3,5-trimethyl-1H-pyrazol-4-yl)-3,4-dihydropyrazino[1,2-a]indol-2(1H)-yl)-1,5-dimethyl-1H-indole-3-carboxylic acid] are 290 nM and under 1 nM.
In the case of `Cc1cc(OCCCc2c3n(c4c(-c5c(C)n[nH]c5C)c(Cl)ccc24)[C@H](C)CN(c2cn(C)c4c(C)cc(C(=O)O)cc24)C3=O)cc(C)c1Cl` [Example 160, (R)-3-(7-chloro-10-(3-(4-chloro-3,5-dimethylphenoxy)propyl)-6-(3,5-dimethyl-1H-pyrazol-4-yl)-4-methyl-1-oxo-3,4-dihydropyrazino[1,2-a]indol-2(1H)-yl)-1,7-dimethyl-1H-indole-5-carboxylic acid], the GI50 in test [1] (setting [3]) was found to be 690 nM. For the same molecule, the inhibitory constant (Ki) in test [2] turned out to be 1.1 nM.
The corresponding values for `Cc1cc(OCCCc2c3n(c4c(-c5c(C)nn(CC6CCN(C)CC6)c5C)c(Cl)ccc24)[C@H](C)CN(c2cn(C)c4c(C)cc(C(=O)O)cc24)C3=O)cc(C)c1Cl` [Example 161, (R)-3-(7-chloro-10-(3-(4-chloro-3,5-dimethylphenoxy)propyl)-6-(3,5-dimethyl-1-((1-methylpiperidin-4-yl)methyl)-1H-pyrazol-4-yl)-4-methyl-1-oxo-3,4-dihydropyrazino[1,2-a]indol-2(1H)-yl)-1,7-dimethyl-1H-indole-5-carboxylic acid] are 480 nM and 2.8 nM.
As to `Cc1cc(N2C[C@@H](C)n3c(c(CCCOc4cc(C)c(Cl)c(C)c4)c4ccc(Cl)c(-c5c(C)nn(C)c5C)c43)C2=O)c2c(c1)c(C(=O)O)cn2C` [Example 162, (R)-7-(7-chloro-10-(3-(4-chloro-3,5-dimethylphenoxy)propyl)-4-methyl-1-oxo-6-(1,3,5-trimethyl-1H-pyrazol-4-yl)-3,4-dihydropyrazino[1,2-a]indol-2(1H)-yl)-1,5-dimethyl-1H-indole-3-carboxylic acid], the GI50 in test [1] (read-out: GI50 on cellular proliferation of H929 human cancer cell lines, H929 cells, 72 h, Cell TiterGlo, 10% FBS) is 260 nM. Further, in test [2], the Ki was under 1 nM.
Take `Cc1cc(OCCCc2c3n(c4c(-c5c(C)nn(C)c5C)c(Cl)ccc24)[C@H](C)CN(c2nn(C)c4ccc(C(=O)O)cc24)C3=O)cc(C)c1Cl` [Example 163, (R)-3-(7-Chloro-10-(3-(4-chloro-3,5-dimethylphenoxy)propyl)-4-methyl-1-oxo-6-(1,3,5-trimethyl-1H-pyrazol-4-yl)-3,4-dihydropyrazino[1,2-a]indol-2(1H)-yl)-1-methyl-1H-indazole-5-carboxylic acid]: the GI50 in test [1] (setting [3]) worked out at 260 nM. Also, the Ki in test [2] was under 1 nM.
For `CCn1cc(N2C[C@@H](C)n3c(c(CCCOc4cc(C)c(Cl)c(C)c4)c4ccc(Cl)c(-c5c(C)nn(C)c5C)c43)C2=O)c2cc(C(=O)O)ccc21` [Example 164, (R)-3-(7-Chloro-10-(3-(4-chloro-3,5-dimethylphenoxy)propyl)-4-methyl-1-oxo-6-(1,3,5-trimethyl-1H-pyrazol-4-yl)-3,4-dihydropyrazino[1,2-a]indol-2(1H)-yl)-1-ethyl-1H-indole-5-carboxylic acid], in that order: 920 nM and 1.7 nM.
For `Cc1cc(OCCCc2c3n(c4c(-c5c(C)nn(C)c5C)c(Cl)ccc24)[C@H](C)CN(c2nn(C)c4c(C(=O)O)cccc24)C3=O)cc(C)c1Cl` [Example 165, (R)-3-(7-Chloro-10-(3-(4-chloro-3,5-dimethylphenoxy)propyl)-4-methyl-1-oxo-6-(1,3,5-trimethyl-1H-pyrazol-4-yl)-3,4-dihydropyrazino[1,2-a]indol-2(1H)-yl)-1-methyl-1H-indazole-7-carboxylic acid], in that order: 1200 nM and 1 nM.
`Cc1cc(OCCCc2c3n(c4c(-c5c(C)nn(C)c5C)c(Cl)ccc24)[C@H](C)CN(c2cn(C(C)C)c4ccc(C(=O)O)cc24)C3=O)cc(C)c1Cl` [Example 166, (R)-3-(7-Chloro-10-(3-(4-chloro-3,5-dimethylphenoxy)propyl)-4-methyl-1-oxo-6-(1,3,5-trimethyl-1H-pyrazol-4-yl)-3,4-dihydropyrazino[1,2-a]indol-2(1H)-yl)-1-isopropyl-1H-indole-5-carboxylic acid]: in test [1] (setting [3]), the GI50 turned out to be 1400 nM. The Ki in test [2] is under 1 nM.
The corresponding values for `Cc1cc(OCCCc2c3n(c4c(-c5c(C)nn(C)c5C)c(Cl)ccc24)[C@H](C)CN(c2cc(C(=O)O)nc4c2ccn4C)C3=O)cc(C)c1Cl` [Example 167, (R)-4-(7-chloro-10-(3-(4-chloro-3,5-dimethylphenoxy)propyl)-4-methyl-1-oxo-6-(1,3,5-trimethyl-1H-pyrazol-4-yl)-3,4-dihydropyrazino[1,2-a]indol-2(1H)-yl)-1-methyl-1H-pyrrolo[2,3-b]pyridine-6-carboxylic acid] are 4100 nM and under 1 nM.
The corresponding values for `Cc1cc(OCCCc2c3n(c4c(-c5c(C)ncnc5C)c(Cl)ccc24)[C@H](C)CN(c2cccc4c(C(=O)O)cn(C)c24)C3=O)cc(C)c1Cl` [Example 168, 7-[(4R)-7-chloro-10-[3-(4-chloro-3,5-dimethyl-phenoxy)propyl]-6-(4,6-dimethylpyrimidin-5-yl)-4-methyl-1-oxo-3,4-dihydropyrazino[1,2-a]indol-2-yl]-1-methyl-indole-3-carboxylic acid] are 1000 nM and 1.1 nM.
For `Cc1cc(OCCCc2c3n(c4c(-c5c(C)nn(C)c5C)c(Cl)ccc24)[C@H](C)CN(c2ccnc4c2cc(C(=O)O)n4C)C3=O)cc(C)c1Cl` [Example 169, (R)-4-(7-chloro-10-(3-(4-chloro-3,5-dimethylphenoxy)propyl)-4-methyl-1-oxo-6-(1,3,5-trimethyl-1H-pyrazol-4-yl)-3,4-dihydropyrazino[1,2-a]indol-2(1H)-yl)-1-methyl-1H-pyrrolo[2,3-b]pyridine-2-carboxylic acid], in that order: 2600 nM and under 1 nM.
Regarding `Cc1cc(OCCCc2c3n(c4c(-c5c(C)nn(C)c5C)c(Cl)ccc24)[C@H](C)CN(c2cc4c(C(=O)O)cccc4n2C)C3=O)cc(C)c1Cl` [Example 170, 2-[(4R)-7-chloro-10-[3-(4-chloro-3,5-dimethyl-phenoxy)propyl]-4-methyl-1-oxo-6-(1,3,5-trimethylpyrazol-4-yl)-3,4-dihydropyrazino[1,2-a]indol-2-yl]-1-methyl-indole-4-carboxylic acid], the GI50 in test [1] (setting [3]) stood at 2600 nM. The Ki in test [2] stood at 2.7 nM.
The corresponding values for `Cc1cc(OCCCc2c3n(c4c(-c5c(C)nn(C)c5C)c(Cl)ccc24)[C@H](C)CN(c2ccc4c(c2)c(C(=O)O)cn4C)C3=O)cc(C)c1Cl` [Example 171, (R)-5-(7-Chloro-10-(3-(4-chloro-3,5-dimethylphenoxy)propyl)-4-methyl-1-oxo-6-(1,3,5-trimethyl-1H-pyrazol-4-yl)-3,4-dihydropyrazino[1,2-a]indol-2(1H)-yl)-1-methyl-1H-indole-3-carboxylic acid] are 1500 nM and under 1 nM.
